In ChEMBL document CHEMBL5303304, “EUbOPEN Chemogenomics Library - IncuCyte” (2023):

Legend:
Type in all cases: toxicity, cell-based
HEK-293T = assay: Incucyte cell viability with HEK293T; conditions: human, 10 µM, compound concentration 10 uM
Fibroblast = assay: Incucyte cell viability with human fibroblast; conditions: 10 µM, compound concentration 10 uM
U2OS = assay: Incucyte cell viability with U2OS; conditions: human, 10 µM, compound concentration 10 uM
Also: unitless GR value; below 1 slowed growth and below 0 cell loss.

Row | SMILES | Growth Rate (HEK-293T; 0 h, replicate number 1) | Growth Rate (HEK-293T; 12 h, replicate number 2) | Growth Rate (Fibroblast; 6 h, replicate number 1) | Growth Rate (Fibroblast; 18 h, replicate number 2) | Growth Rate (U2OS; 0 h, replicate number 1) | Growth Rate (U2OS; 6 h, replicate number 1) | Growth Rate (U2OS; 6 h, replicate number 2) | Growth Rate (U2OS; 12 h, replicate number 1) | Growth Rate (U2OS; 18 h, replicate number 1) | Growth Rate (U2OS; 24 h, replicate number 1) | Growth Rate (HEK-293T; 24 h, replicate number 2) | Growth Rate (Fibroblast; 6 h, replicate number 2) | Growth Rate (Fibroblast; 12 h, replicate number 1) | Growth Rate (Fibroblast; 12 h, replicate number 2) | Growth Rate (Fibroblast; 18 h, replicate number 1) | Growth Rate (Fibroblast; 24 h, replicate number 2) | Growth Rate (U2OS; 0 h, replicate number 2) | Growth Rate (U2OS; 12 h, replicate number 2) | Growth Rate (U2OS; 18 h, replicate number 2) | Growth Rate (U2OS; 24 h, replicate number 2) | also measured
1 | CC(C)(O)CNC(=O)N1C(=O)N(c2cccc(C(F)(F)F)c2)C2=C(C(=O)CC2)[C@@H]1c1ccc(C#N)cc1 | 0.26 | 0.97 | 0.57 | 0.94 | 0.14 | 0.14 | 0.9 | 0.58 | 0.65 | 0.76 | – | – | – | – | – | – | – | – | – | – | –
2 | COc1ccc(S(=O)(=O)N2CCOCC2)cc1Nc1ccc2c(n1)N(C1CCN(C)CC1)[C@H](C)C(=O)N2C | – | – | 0.47 | 0.48 | – | – | – | – | 0.83 | 0.45 | 0.62 | -0.45 | 0.73 | 0.26 | 0.88 | 0.41 | 0.58 | 0.86 | 0.79 | 0.72 | Growth Rate (HEK-293T; 18 h, replicate number 1): 0.97; Growth Rate (HEK-293T; 24 h, replicate number 1): 0.66; Growth Rate (Fibroblast; 0 h, replicate number 2): 0.55; Growth Rate (Fibroblast; 24 h, replicate number 1): 0.86
3 | CC1(C)C(=O)N([C@H]2CCc3c(O)cccc32)c2nc(Nc3cccc(CN4CCCC4)c3)ncc21 | – | -0.41 | -0.49 | -0.52 | -0.88 | 0.38 | -0.15 | 0.05 | -0.08 | -0.27 | -0.32 | -0.63 | -0.4 | -0.57 | -0.44 | -0.52 | 0.2 | -0.3 | -0.3 | -0.38 | Growth Rate (HEK-293T; 0 h, replicate number 2): -1; Growth Rate (HEK-293T; 6 h, replicate number 1): -0.69; Growth Rate (HEK-293T; 6 h, replicate number 2): -0.56; Growth Rate (HEK-293T; 12 h, replicate number 1): -0.53; Growth Rate (HEK-293T; 18 h, replicate number 1): -0.36; Growth Rate (HEK-293T; 18 h, replicate number 2): -0.35; Growth Rate (HEK-293T; 24 h, replicate number 1): -0.28; Growth Rate (Fibroblast; 24 h, replicate number 1): -0.42
4 | CSc1ccc(C(=O)/C=C/c2cc(C)c(OC(C)(C)C(=O)O)c(C)c2)cc1 [ELAFIBRANOR] | 0.18 | 0.79 | – | 0.9 | -0.15 | 0.88 | 0.45 | 0.63 | 0.88 | 0.92 | 0.99 | 0.74 | – | 0.59 | 0.87 | 0.75 | 0.75 | 0.69 | – | 0.76 | Growth Rate (HEK-293T; 6 h, replicate number 2): 0.6; Growth Rate (HEK-293T; 18 h, replicate number 2): 0.97; Growth Rate (Fibroblast; 0 h, replicate number 1): 0.61; Growth Rate (Fibroblast; 0 h, replicate number 2): 0.85
5 | O=C(O)c1ccc(-c2c[nH]c3ncc(-c4ccccc4)cc23)cc1C1CCCC1 [GSK-650394] | 0.23 | – | 0.36 | – | 0.01 | 0.39 | – | 0.79 | 0.86 | – | – | -0.95 | -1 | 0.77 | 0.91 | – | – | 0.98 | 0.92 | 0.96 | Growth Rate (HEK-293T; 0 h, replicate number 2): 0.55; Growth Rate (Fibroblast; 0 h, replicate number 2): -0.45; Growth Rate (Fibroblast; 24 h, replicate number 1): 0.38
6 | Cc1[nH]c2c(N3CCCCC3)c(-c3ccccc3)nn2c(=O)c1-c1ccc(O)cc1 | -0.59 | 0.88 | – | 0.35 | -0.56 | 0.77 | 0.87 | 0.9 | 0.85 | 0.78 | – | 0.19 | – | 0.39 | 0.73 | 0.24 | – | 0.92 | 0.93 | 0.82 | Growth Rate (HEK-293T; 6 h, replicate number 1): 0.95; Growth Rate (HEK-293T; 6 h, replicate number 2): 0.55; Growth Rate (Fibroblast; 0 h, replicate number 1): -0.08; Growth Rate (Fibroblast; 24 h, replicate number 1): 0.64
7 | Cl.O=C(c1ccc(-c2ccc(Cl)cc2)o1)N(Cc1ccccn1)c1ccc(N2CCNCC2)cc1 | – | 0.52 | -0.62 | -0.43 | – | – | 0.57 | – | – | – | 0.25 | -1 | -1 | -0.6 | – | -0.32 | -0.97 | 0.87 | – | – | Growth Rate (HEK-293T; 18 h, replicate number 1): 0.76; Growth Rate (HEK-293T; 18 h, replicate number 2): 0.43; Growth Rate (HEK-293T; 24 h, replicate number 1): 0.48
8 | Cc1ccc(C)c(OCCCC(C)(C)C(=O)O[C@@H]2O[C@H](C(=O)O)[C@@H](O)[C@H](O)[C@H]2O)c1 | 0.57 | 0.64 | 0.96 | – | 0.28 | 0.4 | 0.89 | 0.78 | 0.89 | 0.9 | 0.91 | -0.9 | -1 | 0.42 | -0.29 | 0.89 | -0.96 | 0.99 | – | – | Growth Rate (HEK-293T; 6 h, replicate number 2): 0.49; Growth Rate (HEK-293T; 18 h, replicate number 2): 0.87; Growth Rate (Fibroblast; 0 h, replicate number 1): 0.21; Growth Rate (Fibroblast; 24 h, replicate number 1): 0.68
9 | COc1ccc(-c2coc3cc(O)cc(O)c3c2=O)cc1 [BIOCHANIN] | – | – | – | – | 0.85 | 1 | – | – | – | 0.95 | – | 0.58 | -0.08 | 0.69 | 0.21 | 0.94 | -0.91 | 0.77 | – | 0.93 | Growth Rate (HEK-293T; 0 h, replicate number 2): 0.93; Growth Rate (HEK-293T; 6 h, replicate number 1): 0.75; Growth Rate (HEK-293T; 18 h, replicate number 2): 1; Growth Rate (Fibroblast; 0 h, replicate number 1): 0.87; Growth Rate (Fibroblast; 0 h, replicate number 2): -0.65
10 | Cl.Cl.NC1(c2ccc(-c3nc4ccn5c(=O)[nH]nc5c4cc3-c3ccccc3)cc2)CCC1 | – | -0.42 | -0.87 | -0.54 | – | – | – | – | – | 1 | -0.24 | -1 | -1 | -0.83 | – | -0.32 | – | – | – | – | Growth Rate (HEK-293T; 6 h, replicate number 1): -0.64; Growth Rate (HEK-293T; 6 h, replicate number 2): -0.68; Growth Rate (HEK-293T; 12 h, replicate number 1): -0.64; Growth Rate (HEK-293T; 18 h, replicate number 1): -0.54; Growth Rate (HEK-293T; 18 h, replicate number 2): -0.27; Growth Rate (HEK-293T; 24 h, replicate number 1): -0.48
11 | CN(C)c1ccc(-c2cc3ncccc3c(OCCCCO)n2)cc1.O=C(O)C(F)(F)F | -0.94 | – | – | 0.6 | -1 | – | -0.83 | 0.85 | 0.66 | 0.91 | 0.87 | 0.29 | – | 0.37 | – | 0.65 | – | 0.55 | 0.67 | 0.64 | Growth Rate (HEK-293T; 0 h, replicate number 2): -0.26; Growth Rate (Fibroblast; 0 h, replicate number 2): -0.45
12 | N#Cc1cccc(-c2nc(-c3cccnc3)no2)c1 | – | 0.6 | – | 0.55 | – | – | – | 0.67 | – | – | – | 0.7 | -0.97 | 0.88 | -0.08 | 0.92 | -0.52 | – | 1 | – | Growth Rate (HEK-293T; 6 h, replicate number 1): 0.4; Growth Rate (HEK-293T; 6 h, replicate number 2): 0.1; Growth Rate (HEK-293T; 18 h, replicate number 2): 0.95; Growth Rate (Fibroblast; 0 h, replicate number 1): -0.49; Growth Rate (Fibroblast; 24 h, replicate number 1): 0.19
13 | COC(=O)C1=C(C)NC(C)=C(C(=O)OC(C)C)C1c1cccc2nonc12 (stereo not given) [ISRADIPINE] | 0.8 | – | -0.03 | – | 0.46 | – | 0.83 | 1 | – | – | – | – | -1 | – | -0.41 | – | 0.25 | 0.87 | 0.89 | 0.9 | Growth Rate (HEK-293T; 0 h, replicate number 2): 0.32; Growth Rate (Fibroblast; 24 h, replicate number 1): 0.29
14 | O=C1NC(=Nc2c(Cl)cccc2Cl)S/C1=C\c1ccc2nccnc2c1 | 0.08 | 0.26 | – | – | 0.01 | 0.4 | 0.31 | – | 0.81 | 0.8 | 0.45 | 0.92 | – | 0.96 | – | – | – | 0.38 | 0.64 | 0.75 | Growth Rate (HEK-293T; 0 h, replicate number 2): 0.44; Growth Rate (HEK-293T; 6 h, replicate number 1): 0.02; Growth Rate (HEK-293T; 12 h, replicate number 1): 0.48; Growth Rate (HEK-293T; 18 h, replicate number 1): 0.44; Growth Rate (HEK-293T; 18 h, replicate number 2): 0.35; Growth Rate (HEK-293T; 24 h, replicate number 1): 0.52; Growth Rate (Fibroblast; 0 h, replicate number 1): 0.49
15 | C[C@@H]1C[C@H](C)CN(c2ncc(Cl)c(Nc3ccc4c(c3)cc(OC(C)(C)C(=O)O)c(=O)n4C)n2)C1 | 0.98 | – | – | 0.8 | 0.85 | 0.72 | -0.32 | – | – | 0.78 | – | – | – | 0.53 | – | 0.99 | -0.87 | 0.42 | 0.57 | 0.72 | Growth Rate (HEK-293T; 0 h, replicate number 2): 0.84
